From ChEMBL document CHEMBL1671859, “bla(IMP-4) in different genetic contexts in Enterobacteriaceae isolates from Australia” (2008)

Tests used:
Format in all cases: functional
Klebsiella pneumoniae [1] = assay: Antibacterial activity against Klebsiella pneumoniae isolate Kp1239 harboring IncL/M plasmid and blaIMP-4-qacG2-aacA4-catB3 array by Etest method in presence of clavulanic acid
Klebsiella pneumoniae [2] = assay: Antibacterial activity against Klebsiella pneumoniae isolate Kp2730 harboring IncL/M plasmid and blaIMP-4-qacG2-aacA4-catB3 and dfrA12-orfF-aadA2 arrays by Etest method in presence of clavulanic acid
Klebsiella pneumoniae [3] = assay: Antibacterial activity against Klebsiella pneumoniae isolate Kp3799 harboring IncL/M plasmid and blaIMP-4-qacG2-aacA4-catB3 array by Etest method in presence of clavulanic acid
Citrobacter freundii = assay: Antibacterial activity against Citrobacter freundii isolate Cf1614 harboring IncL/M plasmid and blaIMP-4-qacG2-aacA4-catB3 array by Etest method in presence of clavulanic acid
Serratia marcescens = assay: Antibacterial activity against Serratia marcescens isolate Sm211 harboring IncA/C plasmid and blaIMP-4-qacG2-aacA4-catB3 array by Etest method in presence of clavulanic acid
Acinetobacter = assay: Antibacterial activity against Acinetobacter isolate A74510 harboring blaIMP-4-qacG2-aacA4-catB3 array by Etest method in presence of clavulanic acid
Klebsiella pneumoniae [4] = assay: Antibacterial activity against Klebsiella pneumoniae Kp2730 transconjugant harboring IncL/M plasmid and blaIMP-4-qacG2-aacA4-catB3 and dfrA12-orfF-aadA2 arrays by Etest method in presence of clavulanic acid
Klebsiella pneumoniae [5] = assay: Antibacterial activity against Klebsiella pneumoniae Kp7564 transconjugant harboring IncL/M plasmid and blaIMP-4-qacG2-aacA4-catB3 array by Etest method in presence of clavulanic acid
Citrobacter amalonaticus = assay: Antibacterial activity against Citrobacter amalonaticus Ca38009 transconjugant harboring IncL/M plasmid and blaIMP-4-qacG2-aacA4-catB3 array by Etest method in presence of clavulanic acid
Klebsiella pneumoniae [6] = assay: Antibacterial activity against Klebsiella pneumoniae Kp38045 transconjugant harboring IncL/M plasmid and blaIMP-4-qacG2-aacA4-catB3 array by Etest method in presence of clavulanic acid
Morganella morganii = assay: Antibacterial activity against Morganella morganii Mm1229 transconjugant harboring IncL/M plasmid and blaIMP-4-qacG2-aacA4-catB3 array by Etest method in presence of clavulanic acid
Enterobacter cloacae = assay: Antibacterial activity against Enterobacter cloacae El3799 transconjugant harboring IncL/M plasmid and blaIMP-4-qacG2-aacA4-catB3 array by Etest method in presence of clavulanic acid
Klebsiella oxytoca = assay: Antibacterial activity against Klebsiella oxytoca Ko1156 transconjugant harboring IncL/M plasmid and blaIMP-4-qacG2-aacA4-catB3 array by Etest method in presence of clavulanic acid
Klebsiella pneumoniae [7] = assay: Antibacterial activity against Klebsiella pneumoniae Kp204 transconjugant harboring IncA/C plasmid and blaIMP-4-qacG2-aacA4-catB3 array by Etest method in presence of clavulanic acid

Measured: MIC

CC1(C)S[C@@H]2[C@H](NC(=O)[C@H](N)c3ccc(O)cc3)C(=O)N2[C@H]1C(=O)O [AMOXICILLIN]
> 16 mg/L: Klebsiella pneumoniae [1] | Klebsiella pneumoniae [2] | Klebsiella pneumoniae [3] | Citrobacter freundii | Serratia marcescens | Acinetobacter | Klebsiella pneumoniae [4] | Klebsiella pneumoniae [5] | Citrobacter amalonaticus | Klebsiella pneumoniae [6] | Morganella morganii | Enterobacter cloacae | Klebsiella oxytoca | Klebsiella pneumoniae [7]
